Assay results: ChEMBL document CHEMBL1126549, “A novel series of selective, non-peptide inhibitors of angiotensin II binding to the AT2 site” (J Med Chem, 1993)

Tests used:
[1] = target: T1, Type-2 angiotensin II receptor (Rattus norvegicus, UniProt P35351); test: Binding affinity towards Angiotensin II receptor, type 2 in rat isolated adrenal medullary microsomes; parameters: species or system Adrenal medulla, Microsome
T1 sequence (P35351 whole entry): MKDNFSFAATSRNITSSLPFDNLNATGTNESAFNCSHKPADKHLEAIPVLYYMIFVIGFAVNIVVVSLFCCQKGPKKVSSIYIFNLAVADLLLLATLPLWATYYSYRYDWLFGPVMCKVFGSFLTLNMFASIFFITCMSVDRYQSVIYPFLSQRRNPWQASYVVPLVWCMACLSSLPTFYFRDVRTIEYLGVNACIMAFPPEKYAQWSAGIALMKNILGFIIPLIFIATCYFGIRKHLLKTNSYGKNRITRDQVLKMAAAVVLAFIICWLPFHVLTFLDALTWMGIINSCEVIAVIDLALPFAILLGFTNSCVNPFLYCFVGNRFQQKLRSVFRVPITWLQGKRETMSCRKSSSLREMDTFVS

[2] = target: T2, Angiotensin II receptor (AT-1) type-1 (Rattus norvegicus, UniProt P29089+P25095); test: Binding affinity towards Angiotensin II receptor, type 1 in rat isolated adrenal cortical microsomes; parameters: species or system Microsome
T2 sequence (P29089 whole entry): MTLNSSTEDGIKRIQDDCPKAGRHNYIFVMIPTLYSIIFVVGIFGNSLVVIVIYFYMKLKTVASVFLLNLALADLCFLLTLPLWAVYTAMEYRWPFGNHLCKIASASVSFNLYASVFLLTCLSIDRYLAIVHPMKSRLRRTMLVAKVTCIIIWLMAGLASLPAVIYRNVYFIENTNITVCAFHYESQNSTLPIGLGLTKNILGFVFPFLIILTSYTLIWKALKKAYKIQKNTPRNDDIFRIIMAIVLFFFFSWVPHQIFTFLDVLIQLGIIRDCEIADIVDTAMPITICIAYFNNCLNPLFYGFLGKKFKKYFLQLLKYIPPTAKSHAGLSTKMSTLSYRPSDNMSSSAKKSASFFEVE
T2 sequence (P25095 whole entry): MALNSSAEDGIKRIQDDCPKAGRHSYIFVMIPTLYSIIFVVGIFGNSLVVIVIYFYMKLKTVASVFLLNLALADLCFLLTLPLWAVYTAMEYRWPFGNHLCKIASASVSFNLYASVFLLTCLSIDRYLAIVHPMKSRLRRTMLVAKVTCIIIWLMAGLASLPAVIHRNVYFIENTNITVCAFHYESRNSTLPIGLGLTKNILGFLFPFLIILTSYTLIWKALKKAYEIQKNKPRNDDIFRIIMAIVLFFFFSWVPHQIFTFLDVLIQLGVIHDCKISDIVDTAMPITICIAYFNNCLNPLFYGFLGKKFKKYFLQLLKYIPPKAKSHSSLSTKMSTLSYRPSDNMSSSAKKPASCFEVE

[3] = target: T1, Type-2 angiotensin II receptor; test: Binding affinity towards angiotensin II AT2 receptor subtype was determined using rat isolated adrenal […] microsomes

| IC50 [1] [nM] | IC50 [2] [µM] | IC50 [3] [nM] | SMILES |
| --- | --- | --- | --- |
| 40 | > 10 | – | O=C(O)C1Cc2c(cccc2-c2ccccc2)CN1C(=O)C(c1ccccc1)c1ccccc1 (centres undefined) |
| 200 | 10 | – | COc1ccc(Cc2cccc3c2CC(C(=O)O)N(C(=O)N(c2ccccc2)c2ccccc2)C3)cc1 (centres undefined) |
| – | – | 10 | COc1ccc(Cn2cnc3c2C[C@@H](C(=O)O)N(C(=O)C(c2ccccc2)c2ccccc2)C3)cc1C |
| 400 | > 10 | – | COc1ccc(Cc2cccc3c2CC(C(=O)O)N(C(=O)N(C)c2ccccc2)C3)cc1 (centres undefined) |
| 600 | > 10 | – | O=C(O)C1Cc2cc(O)ccc2CN1C(=O)C(c1ccccc1)c1ccccc1 (centres undefined) |
| 2000 | > 10 | – | COC(=O)C1Cc2c(cccc2-c2ccccc2)CN1C(=O)C(c1ccccc1)c1ccccc1 (centres undefined) |
| 80 | 4 | – | O=C(O)C1Cc2c(Cc3ccccc3)cccc2CN1C(=O)C(c1ccccc1)c1ccccc1 (stereo in doubt; 23) |

Continued, compound first:

| SMILES | IC50 [1] [nM] | IC50 [2] [µM] | IC50 [3] [nM] |
| --- | --- | --- | --- |
| COC(=O)C1Cc2c(C)cccc2CN1C(=O)C(c1ccccc1)c1ccccc1 (centres undefined) | 5000 | > 10 | – |
| Cc1cccc2c1CC(C(=O)O)N(C(=O)C(c1ccccc1)c1ccccc1)C2 (centres undefined) | 300 | > 10 | – |
| COC(=O)C1Cc2c(Cc3ccc(OC)cc3)cccc2CN1C(=O)C(c1ccccc1)c1ccccc1 (centres undefined) | > 10000 | > 10 | – |
| O=C(O)C1Cc2ccccc2CN1C(=O)C(c1ccccc1)c1ccccc1 (centres undefined) | 2500 | > 30 | – |
| O=C(O)C1Cc2cc(-c3ccccc3)ccc2CN1C(=O)C(c1ccccc1)c1ccccc1 (centres undefined) | 30 | > 10 | – |
| CN(C(=O)N1Cc2ccc(Oc3ccccc3)cc2CC1C(=O)O)c1ccccc1 (centres undefined) | 300 | > 10 | – |
| CCCCCc1cccc2c1CC(C(=O)O)N(C(=O)C(c1ccccc1)c1ccccc1)C2 (centres undefined) | 40 | > 10 | – |
| COc1ccc(Cc2cccc3c2CC(C(=O)O)N(C(=O)C(c2ccccc2)c2ccccc2)C3)cc1C (centres undefined) | 100 | 5 | – |
| COc1ccc(Cc2cccc3c2CC(C(=O)O)N(C(=O)C(c2ccccc2)c2ccccc2)C3)cc1 (centres undefined) | 90 | 7 | – |
| COc1ccc(-c2cccc3c2CC(C(=O)O)N(C(=O)C(c2ccccc2)c2ccccc2)C3)cc1C (centres undefined) | 70 | > 10 | – |
| COC(=O)C1Cc2c(Cc3ccccc3)cccc2CN1C(=O)C(c1ccccc1)c1ccccc1 (centres undefined) | 7000 | > 10 | – |
| O=C(O)C1Cc2cc(Oc3ccccc3)ccc2CN1C(=O)C(c1ccccc1)c1ccccc1 (centres undefined) | 60 | > 10 | – |
| COc1ccc(-c2cccc3c2CC(C(=O)O)N(C(=O)C(c2ccccc2)c2ccccc2)C3)cc1 (centres undefined) | 40 | 10 | – |
| COC(=O)C1Cc2c(cccc2-c2ccc(OC)cc2)CN1C(=O)C(c1ccccc1)c1ccccc1 (centres undefined) | 2000 | > 10 | – |
| O=C(O)C1Cc2c(Cc3ccccc3)cccc2CN1C(=O)C(c1ccccc1)c1ccccc1 (stereo in doubt; 21) | 90 | 10 | – |
| O=C(O)C1Cc2c(Cc3ccccc3)cccc2CN1C(=O)C(c1ccccc1)c1ccccc1 (stereo in doubt; 22) | 70 | – | – |
